From patent publication US10072003B2, “Tetrahydronaphthyridine derivatives as mGluR2-negative allosteric modulators, compositions, and their use” (Merck Sharp & Dohme Corp., priority 2014, dated 2018) come the findings set out here.

Each structure is given as a SMILES string.

This experiment addresses recombinant human mGluR2 (Homo sapiens (Human), UniProt Q14416). Description: FLIPR Ca2+ mobilization antagonist assay in CHO dhfr- cells expressing human mGluR2 and Gα16. The following applies: antagonist response after addition of 2,500 nM glutamate, Fluo-4 AM, FLIPR384. It is filed as cell-based. On the procedure: Antagonist constants are determined as follows. The compounds of the invention were tested in a fluorescence laser imaging plate reader based assay. This assay is a common functional assay to monitor Ca2+ mobilization in whole cells expressing recombinant receptor coupled with a promiscuous G-protein. CHO dhfr-cells stably expressing recombinant human mGluR2 and Gα16 loaded with Fluo-4 AM (Invitrogen, Carlsbad Calif.) were treated with various concentrations of antagonists of compounds and the Ca2+ response was monitored on a FLIPR384 (Molecular Devices, Sunnydale Calif.) for agonist activity. Then 2,500 nM glutamate was added and the antagonist response was monitored. The maximum calcium response at each concentration of compound for agonist or antagonist were plotted as dose responses and the curves were fitted with a four parameter logistic equation giving IC50 and Hill coefficient using the iterative non linear curve fitting software ADA (Merck & Co). Data in the following table represent activities in the antagonist assay.
A general note: Calcium assays in cells follow changes in intracellular calcium, usually with a dye or a luminescent sensor.

Chain of recombinant human mGluR2 (Q14416 19-872): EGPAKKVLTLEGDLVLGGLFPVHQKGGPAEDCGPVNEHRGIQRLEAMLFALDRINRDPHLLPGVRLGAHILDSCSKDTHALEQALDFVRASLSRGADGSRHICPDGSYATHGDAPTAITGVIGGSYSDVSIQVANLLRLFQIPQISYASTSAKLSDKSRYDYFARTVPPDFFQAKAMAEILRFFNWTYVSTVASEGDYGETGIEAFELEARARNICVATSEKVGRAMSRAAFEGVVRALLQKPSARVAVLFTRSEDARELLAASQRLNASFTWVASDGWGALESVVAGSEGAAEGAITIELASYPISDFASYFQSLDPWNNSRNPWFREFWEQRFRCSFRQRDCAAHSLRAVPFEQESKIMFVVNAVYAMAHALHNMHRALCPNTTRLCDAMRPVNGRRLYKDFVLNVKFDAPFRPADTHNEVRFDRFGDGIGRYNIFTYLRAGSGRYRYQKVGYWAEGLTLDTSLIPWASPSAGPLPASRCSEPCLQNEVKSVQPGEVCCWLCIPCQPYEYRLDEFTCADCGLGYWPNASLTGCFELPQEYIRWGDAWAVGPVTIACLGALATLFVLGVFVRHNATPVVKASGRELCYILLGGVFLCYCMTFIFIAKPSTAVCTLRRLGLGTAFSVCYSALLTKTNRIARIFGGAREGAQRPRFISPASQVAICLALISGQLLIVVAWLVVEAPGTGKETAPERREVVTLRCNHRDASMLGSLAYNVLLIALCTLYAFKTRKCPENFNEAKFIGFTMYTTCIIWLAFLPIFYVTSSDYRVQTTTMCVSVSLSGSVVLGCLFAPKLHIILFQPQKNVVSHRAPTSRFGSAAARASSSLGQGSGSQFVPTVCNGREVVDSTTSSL

In the case of `NC(=O)c1cc(-c2ccc(F)cc2F)c2c(n1)CN(CC(O)c1ccccc1)CC2` (single isomer, unassigned) [Example 8-3B, (R) or (S)-4-(2,4-difluorophenyl)-7-[(2R or 2S)-2-hydroxy-2-phenylethyl]-5,6,7,8-tetrahydro-1,7-naphthyridine-2-carboxamide], the IC50 – broadly, the point on the concentration scale where inhibition reaches its midpoint – is 0.0127 µM.

For `CC(c1cnnn1C)N1CCc2c(-c3ccc(F)cc3F)cc(C(N)=O)nc2C1` (single isomer, unassigned) [Example 7-2, (R) or (S)-4-(2,4-difluorophenyl)-7-[(1R)-1-(1-methyl-1H-1,2,3-triazol-5-yl)ethyl]-5,6,7,8-tetrahydro-1,7-naphthyridine-2-carboxamide], the IC50 came to 0.0459 µM.

Consider `NC(=O)c1cc(-c2ccc(F)cc2F)c2c(n1)CN(Cc1cc(C(F)(F)F)ncn1)CC2` [Example 2-23, 4-(2,4-difluorophenyl)-7-{[6-(trifluoromethyl)pyrimidin-4-yl]methyl}-5,6,7,8-tetrahydro-1,7-naphthyridine-2-carboxamide], for which the IC50 worked out at 0.0057 µM.

For `COc1ccc(-c2cc(C(N)=O)nc3c2CCN(Cc2ccnc(OC)c2)C3)c(F)c1` [Example 13-2, 4-(2-fluoro-4-methoxyphenyl)-7-[(2-methoxypyridin-4-yl)methyl]-5,6,7,8-tetrahydro-1,7-naphthyridine-2-carboxamide], the IC50 amounted to 0.0066 µM.

For the molecule `NC(=O)c1cc(-c2ccc(F)cc2F)c2c(n1)CN(CC(O)c1ccccc1)CC2` (racemic) [Example 8-1B, (S) and (R)-4-(2,4-difluorophenyl)-7-(2-hydroxy-2-phenylethyl)-5,6,7,8-tetrahydro-1,7-naphthyridine-2-carboxamide], the half-maximal inhibitory concentration (IC50) is 0.0127 µM.

As to `NC(=O)c1cc(-c2ccc(F)cc2)c2c(n1)CN(Cc1cc(C(F)(F)F)ncn1)CC2` [Example 11-10, 4-(4-fluorophenyl)-7-{[6-(trifluoromethyl)pyrimidin-4-yl]methyl}-5,6,7,8-tetrahydro-1,7-naphthyridine-2-carboxamide], the concentration for half-maximal inhibition (IC50) is 0.0076 µM.

Take `NC(=O)c1cc(C2=CCC3(CC2)CC3)c2c(n1)CN(Cc1ccnc(C(F)(F)F)c1)CC2` [Example 4-2, 4-spiro[2.5]oct-5-en-6-yl-7-{[2-(trifluoromethyl)pyridin-4-yl]methyl}-5,6,7,8-tetrahydro-1,7-naphthyridine-2-carboxamide]: the 50% inhibitory concentration (IC50) was determined as 0.0497 µM.

As for `NC(=O)c1cc(-c2ccc(Cl)cc2F)c2c(n1)CN(Cc1cc(C(F)(F)F)ncn1)CC2` [Example 11-12, 4-(4-chloro-2-fluorophenyl)-7-{[6-(trifluoromethyl)pyrimidin-4-yl]methyl}-5,6,7,8-tetrahydro-1,7-naphthyridine-2-carboxamide], the half-maximal inhibitory concentration (IC50) was 0.01 µM.

In the case of `Cc1conc1CN1CCc2c(-c3ccc(F)cc3F)cc(C(N)=O)nc2C1` [Example 2-26, 4-(2,4-difluorophenyl)-7-[(4-methylisoxazol-3-yl)methyl]-5,6,7,8-tetrahydro-1,7-naphthyridine-2-carboxamide], the IC50 came to 0.0131 µM.

In the case of `NC(=O)c1cc(-c2ccc(F)cc2Cl)c2c(n1)CN(Cc1ccnc(C(F)(F)F)n1)CC2` [Example 11-5, 4-(2-chloro-4-fluorophenyl)-7-{[2-(trifluoromethyl)pyrimidin-4-yl]methyl}-5,6,7,8-tetrahydro-1,7-naphthyridine-2-carboxamide], the IC50 came out at 0.0176 µM.

Regarding `Cc1ncc(-c2cc(C(N)=O)nc3c2CCN(Cc2ccnc(OC(F)F)c2)C3)s1` [Example 6-3, 7-{[2-(difluoromethoxy)pyridin-4-yl]methyl}-4-(2-methyl-1,3-thiazol-5-yl)-5,6,7,8-tetrahydro-1,7-naphthyridine-2-carboxamide], the IC50 came to 0.0186 µM.

Regarding `NC(=O)c1cc(-c2ccccc2F)c2c(n1)CN(Cc1ccnc(C(F)(F)F)n1)CC2` [Example 11-8, 4-(2-fluorophenyl)-7-{[2-(trifluoromethyl)pyrimidin-4-yl]methyl}-5,6,7,8-tetrahydro-1,7-naphthyridine-2-carboxamide], the IC50 amounted to 0.0118 µM.

As for `C[C@@H]1CN(c2cc(C(N)=O)nc3c2CCN(Cc2ccnc(C(F)(F)F)c2)C3)CCO1` [Example 5-2, (R)-4-(2-methylmorpholino)-7-((2-(trifluoromethyl)pyridin-4-yl)methyl)-5,6,7,8-tetrahydro-1,7-naphthyridine-2-carboxamide], the 50% inhibitory concentration (IC50) was 0.0791 µM.

Turning to `CC(C)(C)n1nccc1CN1CCc2c(-c3ccncc3)cc(C(N)=O)nc2C1` [Example 1-13, 7-[(1-tert-butyl-1H-pyrazol-5-yl)methyl]-4-pyridin-4-yl-5,6,7,8-tetrahydro-1,7-naphthyridine-2-carboxamide], the IC50 was 0.0841 µM.

In the case of `CC1(C)CCC(CN2CCc3c(-c4ccc(F)cc4F)cc(C(N)=O)nc3C2)CO1` (single isomer, unassigned) [Example 1-20, (S) or (R)-4-(2,4-difluorophenyl)-7-[(6,6-dimethyltetrahydro-2H-pyran-3-yl)methyl]-5,6,7,8-tetrahydro-1,7-naphthyridine-2-carboxamide], the IC50 was determined as 0.0244 µM.

With `Cc1noc(CN2CCc3c(-c4ccc(Cl)cc4F)cc(C(N)=O)nc3C2)n1` [Example 9-5, 4-(4-chloro-2-fluorophenyl)-7-[(3-methyl-1,2,4-oxadiazol-5-yl)methyl]-5,6,7,8-tetrahydro-1,7-naphthyridine-2-carboxamide], the IC50 was determined as 0.0127 µM.

With `NC(=O)c1cc(-c2ccccc2Cl)c2c(n1)CN(Cc1ccnc(C(F)(F)F)n1)CC2` [Example 11-4, 4-(2-chlorophenyl)-7-{[2-(trifluoromethyl)pyrimidin-4-yl]methyl}-5,6,7,8-tetrahydro-1,7-naphthyridine-2-carboxamide], the IC50 is 0.0197 µM.

With `NC(=O)c1ccc(CN2CCc3c(-c4ccc(F)cc4)cc(C(N)=O)nc3C2)cc1` [Example 2-3, 7-(4-carbamoylbenzyl)-4-(4-fluorophenyl)-5,6,7,8-tetrahydro-1,7-naphthyridine-2-carboxamide], the IC50 stood at 0.117 µM.

Take `NC(=O)c1cc(-c2c(F)cc(Cl)cc2F)c2c(n1)CN(Cc1ccnn1C(F)F)CC2` [Example 2-20, 4-(4-chloro-2,6-difluorophenyl)-7-{[1-(difluoromethyl)-1H-pyrazol-5-yl]methyl}-5,6,7,8-tetrahydro-1,7-naphthyridine-2-carboxamide]: the IC50 is 0.011 µM.

Regarding `Cn1nncc1CN1CCc2c(-c3c(F)cc(F)cc3F)cc(C(N)=O)nc2C1` [Example 2-21, 7-[(1-methyl-1H-1,2,3-triazol-5-yl)methyl]-4-(2,4,6-trifluorophenyl)-5,6,7,8-tetrahydro-1,7-naphthyridine-2-carboxamide], the concentration for half-maximal inhibition (IC50) came out at 0.0337 µM.

As for `Cn1nccc1CN1CCc2c(-c3ccc(F)cc3F)cc(C(N)=O)nc2C1` [Example 1-6, 4-(2,4-difluorophenyl)-7-[(1-methyl-1H-pyrazol-5-yl)methyl]-5,6,7,8-tetrahydro-1,7-naphthyridine-2-carboxamide], the IC50 was determined as 0.0145 µM.

Regarding `NC(=O)c1cc(N2CCC(F)(F)CC2)c2c(n1)CN(Cc1ccnc(C(F)(F)F)n1)CC2` [Example 12-1, 4-(4,4-difluoropiperidin-1-yl)-7-((2-(trifluoromethyl)pyrimidin-4-yl)methyl)-5,6,7,8-tetrahydro-1,7-naphthyridine-2-carboxamide], the IC50 came to 0.0409 µM.

With `NC(=O)c1cc(-c2ccc(F)cc2F)c2c(n1)CN(CC(=O)N1CCOCC1)CC2` [Example 2-17, 4-(2,4-difluorophenyl)-7-(2-morpholin-4-yl-2-oxoethyl)-5,6,7,8-tetrahydro-1,7-naphthyridine-2-carboxamide], the half-inhibitory concentration (IC50) came to 0.101 µM.

Turning to `NC(=O)c1cc(-c2ccc(F)cc2F)c2c(n1)CN(CC(O)c1ccccc1)CC2` (racemic) [Example 8-1A, (S) and (R)-4-(2,4-difluorophenyl)-7-(2-hydroxy-2-phenylethyl)-5,6,7,8-tetrahydro-1,7-naphthyridine-2-carboxamide], the IC50 was found to be 0.0185 µM.

With `NC(=O)c1cc(-c2ccc(F)cc2F)c2c(n1)CN(C(CO)c1ccccc1)CC2` (racemic) [Example 8-2A, (S) and (R)-4-(2,4-difluorophenyl)-7-(2-hydroxy-1-phenylethyl)-5,6,7,8-tetrahydro-1,7-naphthyridine-2-carboxamide], the half-inhibitory concentration (IC50) was found to be 0.0099 µM.

Take `COc1ccnc(CN2CCc3c(-c4ccc(Cl)cc4F)cc(C(N)=O)nc3C2)n1` [Example 9-7, 4-(4-chloro-2-fluorophenyl)-7-[(4-methoxypyrimidin-2-yl)methyl]-5,6,7,8-tetrahydro-1,7-naphthyridine-2-carboxamide]: the IC50 came to 0.0117 µM.

Take `CC1c2nc(C(N)=O)cc(-c3ccc(F)cc3F)c2CCN1Cc1ccnn1C(C)C` (single isomer, unassigned) [Example 1-15A, (S) or (R)-4-(2,4-difluorophenyl)-8-methyl-7-{[1-(1-methylethyl)-1H-pyrazol-5-yl]methyl}-5,6,7,8-tetrahydro-1,7-naphthyridine-2-carboxamide]: the concentration for half-maximal inhibition (IC50) worked out at 0.0058 µM.

Turning to `CC1(C)CC(CN2CCc3c(-c4ccc(F)cc4F)cc(C(N)=O)nc3C2)CCO1` (single isomer, unassigned) [Example 1-11B, (S) or (R)-4-(2,4-difluorophenyl)-7-[(2,2-dimethyltetrahydro-2H-pyran-4-yl)methyl]-5,6,7,8-tetrahydro-1,7-naphthyridine-2-carboxamide], the 50% inhibitory concentration (IC50) turned out to be 0.0452 µM.

Regarding `CS(=O)(=O)c1cccc(CN2CCc3c(-c4ccccc4F)cc(C(N)=O)nc3C2)c1` [Example 2-13, 4-(2-fluorophenyl)-7-[3-(methylsulfonyl)benzyl]-5,6,7,8-tetrahydro-1,7-naphthyridine-2-carboxamide], the IC50 stood at 0.0478 µM.
